Tests used:
[1] = patients with heart failure; cited from earlier work
[2] = target: T1, hA2AAR (Homo sapiens, UniProt P29274); conditions: label-free whole-cell assay, HEK293hA2AR
[3] = target: T1, hA2AAR; conditions: 1 μM; all adenosine receptor subtypes

T1 sequence (P29274 whole entry): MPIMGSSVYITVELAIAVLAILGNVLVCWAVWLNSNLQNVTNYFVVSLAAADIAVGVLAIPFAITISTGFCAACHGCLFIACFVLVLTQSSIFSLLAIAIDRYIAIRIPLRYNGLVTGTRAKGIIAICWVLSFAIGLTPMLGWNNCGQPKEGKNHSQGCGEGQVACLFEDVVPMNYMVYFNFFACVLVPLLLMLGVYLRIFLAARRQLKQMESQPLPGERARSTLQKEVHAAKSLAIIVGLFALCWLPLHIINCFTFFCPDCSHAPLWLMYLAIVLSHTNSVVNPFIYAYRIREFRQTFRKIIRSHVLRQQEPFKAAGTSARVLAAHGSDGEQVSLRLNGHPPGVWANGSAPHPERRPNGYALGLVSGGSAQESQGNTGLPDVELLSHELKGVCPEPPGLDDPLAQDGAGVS

functional behavior / intrinsic activity at hA2AAR [2]	Compound	further results
–	N#Cc1c(SCc2csc(-c3ccc(Cl)cc3)n2)nc(N2CCCC2)c(C#N)c1-c1ccc(OCCO)cc1 [neladenoson]	primary endpoint of phase 2b clinical trial [1]: failed to meet the primary endpoint
inverse agonist	N#Cc1c(SCc2ncc[nH]2)nc(N)nc1-c1ccccc1 [Compound 3, 4-((1H-Imidazol-2-yl)methylthio)-2-amino-6-phenylpyrimidine-5-carbonitrile]	–
–	Nc1cc(-c2ccccc2)cc(SCc2ncc[nH]2)n1 [Compound 5, 6-(((1H-Imidazol-2-yl)methyl)thio)-4-phenylpyridin-2-amine]	displacement of radioligand binding in preliminary single-concentration assays [3]: no or negligible displacement
inverse agonism	Nc1nc(SCc2ncc[nH]2)nc(-c2ccccc2)n1 [Compound 2, 4-(1H-Imidazol-2-yl)methylthio-6-phenyl-1,3,5-triazin-2-amine]	–

Compound	functional behavior / intrinsic activity at hA2AAR [2]	further results
N#Cc1c(-c2ccccc2)cc(N)nc1SCc1ncc[nH]1 [Compound 6, 2-(((1H-Imidazol-2-yl)methyl)thio)-6-amino-4-phenylnicotinonitrile]	did not show any measurable degree of intrinsic activity	–

Reference: article PMC8154574 (Journal of Medicinal Chemistry, 2021)
